Laboratory results: patent publication US20030072716A1, “Renewable, carbohydrate based CO2-philes” (priority 2001, published 2003)

Key:
[1] = Deliquescence, swelling and dissolution in CO2 in a high-pressure view cell near room temperature; type: physicochemical; conditions: for solubility / miscibility in liquid CO2: BGLU at 23.0° C., 60.5 bar
From the text: The interaction of BGLU in carbon dioxide was examined in a high-pressure view cell. The BGLU was exposed to carbon dioxide at near room temperature and a pressure of from 35 to 40 bar.
The procedure according to Example 1 was repeated except that the carbon dioxide pressure was 55.9 bar. A solid to liquid transition (i.e., deliquescence) of the BGLU was observed. […] See FIG. 3, Panel (C) and FIG. 3, Panel (D). Upon reaching liquid-vapor equilibrium pressure, the liquid carbon dioxide formed a separate layer on top of the viscous melt containing carbon dioxide.
BGLU is a white solid that melts at 132° C. under atmospheric pressure conditions (FIG. 3, Panel (A)). However, as BGLU is exposed to CO2 near room temperature (23.0° C.) in a conventional high-pressure view cell, it absorbs CO2 and becomes “wetted” with CO2 at a pressure of 35-40 bar. The white solid appears as a salt does in a humid environment. Furthermore, at a gaseous CO2 pressure of 55.9 bar a solid-to-liquid transition (deliquescence) occurs (FIG. 3, Panel (B)). This is analogous to the deliquescence of hygroscopic materials absorbing atmospheric moisture. […] Upon reaching the liquid-vapor equilibrium pressure, the liquid CO2 forms a separate layer on top of the viscous melt containing CO2. However, the melt easily mixes with the upper layer of liquid CO2 on stirring and forms a single-phase liquid mixture in contact with the gaseous CO2 phase (FIG. 3, Panel (E)). Further addition of CO2 only dilutes this liquid phase (FIG. 3F). Although, CO2-induced swelling (Rover et al., (1999) Macromolecules 32: 8965-8973) and CO2-assisted melting point depression (Zhang & Handa, (1997) Macromolecules 30: 8505-8507.) have been reported in polymers by sorption of CO2 under high pressures, the materials are not readily miscible in liquid and supercritical CO2, indicating the lack of a significant attractive interaction.

[2] = Solubility and cloud-point behaviour in supercritical CO2 at 40 °C; type: physicochemical; conditions: for miscibility with CO2 from cloud-point data: scCO2, 40.0° C., relatively low pressures, up to 30% (wt); for solubility behaviour in supercritical CO2: supercritical CO2, 40° C.
Procedure: The solubility of BGLU and AGLU in supercritical carbon dioxide were examined at 40° C. […] The behavior is illustrated in FIG. 3. At the cloud point pressure, phase separation commences between the supercritical carbon dioxide and the sugar ester melt. Upon lowering the pressure, the material reappears in the solid state (see FIG. 4).
The cloud-point pressures of these systems in scCO2 were examined at 40.0° C. As in the subcritical case, initially the solid melts and swells (for AGLU and BGLU) and all three peracetylated sugars readily go into a single-phase, scCO2 system. A plot of the cloud-point pressure versus the weight percent for AGLU, BGLU, and BGAL dissolved in supercritical CO2 at 40.0° C. is given in FIG. 4. At the cloud-point pressure, phase separation begins between scCO2 and the sugar ester. Upon lowering the pressure, the material reappears in the solid state. No cloud-point measurements were made above 30% (wt) due to limitations arising from the volume of the view cell and the rapid swelling of the sample in the cases of AGLU and BGLU.

Row | deliquescence point, amount lower than that of BGLU ([1]; difference relative to BGLU) | miscibility with CO2 from cloud-point data [2] | solubility behaviour in supercritical CO2 [2] | concentration in the CO2-induced melt ([1]; approximate estimate, melt can be diluted with liquid or scCO2 in any proportion) | swelling of the melt on CO2 absorption ([1]; changes in gaseous CO2 pressure of only 2 and 3 bar above deliquescence pressure) | gaseous CO2 pressure at which solid-to-liquid transition (deliquescence) occurs ([1]; gaseous CO2, 23.0° C., high-pressure view cell) [bar] | CO2 pressure at which the solid absorbs CO2 and becomes wetted ([1]; near room temperature (23.0° C.)) | SMILES | deliquescence in CO2 ([1]; contact with CO2) | solubility / miscibility in liquid CO2 [1]
1 | – | – | – | – | – | – | – | CC(=O)OC[C@H]1O[C@@H](OC(C)=O)[C@H](OC(C)=O)[C@@H](OC(C)=O)[C@H]1OC(C)=O [BGAL, beta 1,2,3,4,6-pentaacetyl β-D-galactose] | does not exhibit deliquescence | readily soluble
2 | 6-7 bar | complete miscibility | melted, swelled, and readily dissolved | – | – | – | – | CC(=O)OC[C@H]1O[C@H](OC(C)=O)[C@H](OC(C)=O)[C@@H](OC(C)=O)[C@@H]1OC(C)=O [AGLU, alpha 1,2,3,4,6-pentaacetyl-D-glucose] | – | –
3 | – | complete miscibility | melted, swelled, and readily dissolved | more than 80 wt % | swells to many times its original volume | 55.9 | 35-40 bar | CC(=O)OC[C@H]1O[C@@H](OC(C)=O)[C@H](OC(C)=O)[C@@H](OC(C)=O)[C@@H]1OC(C)=O [BGLU, beta 1,2,3,4,6-pentaacetyl-D-glucose] | – | complete miscibility
